According to patent US20090105301A1, “9A-SUBSTITUTED AZALIDES FOR THE TREATMENT OF MALARIA” (priority 2006, published 2009):
Converted amounts (≈) assume the structure as drawn. Where a name gives a salt, the structure may show the parent alone.

Assays:
Format in all cases: cell-based, Plasmodium falciparum
[1] = system: P. falciparum D6 (CDC/Sierra Leone I, D-6); assay: In vitro screening protocol I, [3H]-hypoxanthine incorporation, D6; conditions: Plasmodium falciparum; In vitro screening protocol I; P. falciparum D6; read-out: IC50 D6
Description: (§1) Agents Chemother. 27 (4) (1985) 525-530). The system was limited to the assessment of the intrinsic activity against the erythrocytic asexual life cycle (blood schizontocides). Two Plasmodium falciparum clones from CDC/Indochina III (W-2) and CDC/Sierra Leone I (D-6) (Oduola A M, Weatherly N F, Bowdre J H, Desjardins R E. Plasmodium falciparum: cloning by single-erythrocyte micromanipulation and heterogeneity in vitro. Exp Parasitol. 66 (1) (1988) 86-95) were used for all assays. TM91C235, a multiple drug resistant isolate from Thailand (Antimicrob. Agents Chemother. 46 (8) (2002) 2627 and Antimicrob. Agents Chemother. 43 (3) (1999) 598-602), was used for the prescreening assay. W-2 is resistant to chloroquine, quinine, and pyrimethamine and susceptible to mefloquine. D-6 tends to be more resistant to mefloquine and susceptible to chloroquine, quinine, and pyrimethamine. All documents cited in this paragraph are incorporated by reference in their entirety.
(§2) All parasites were maintained in continuous long term cultures in RPMI-1640 medium supplemented with 6% washed human A positive (A+)(erythrocytes, 25 mM Hepes, […], and 10% heat inactivated A+ human plasma or ALBUMAX® (lipid-rich bovine serum albumin; Invitrogen, Carlsbad, Calif.). All cultures and assays were conducted at 37° C. under an atmosphere of 5% CO2 and 5% O2, with a balance of N2.
(§3) The prescreening assay uses TM91C235 diluted at a 0.4% parasitemia in a 1% hematocrit in folic acid free and p-aminobenzoic acid free media RPMI-1640 and ALBUMAX®. […] The compound is further diluted in folate free (FF) culture medium with ALBUMAX® for the first initial starting concentration. The rest of the stock drug solution was kept at −70° C. The isolate was preexposed, in duplicate, at three concentrations (25,000 ng/ml, 2,500 ng/ml, and […]) of the test compound for 48 hr in a 96-well microtiter plate (MTP) using the BIOMEK® 2000 automated laboratory workstation. Each MTP contains chloroquine as control to assess the relative activity of the compound and to monitor the response of TM91C235.
(§4) After the preincubation, [^3H]-hypoxanthine was added to each well of the MTP. (The assay relies on the incorporation of radiolabeled hypoxanthine by the parasites, which indicates reproduction, and inhibition of isotope incorporation was attributed to activity of known or candidate antimalarial drugs). After 72 hours of total incubation time, the MTP were frozen to lyse the erythrocytes and parasites. The parasite DNA was recovered by harvesting the lysate onto glass-fiber filter plates using a Packard FilterMate™ Cell Harvester. The radioactivity was counted on a Packard TopCount™ microplate scintillation counter.
(§5) The serial dilution assay was conducted using the same assay conditions and stock solution of the compound used for the preliminary screen, described above. Both the D-6 and the W-2 clones were used. The compounds were diluted two-fold over 11 different concentration ranges with a starting concentration that was based on the preliminary screen. For each drug, the concentration response profile was determined and 50% inhibitory concentrations (IC50) were determined by using a non-linear, logistic dose response analysis program. […] For each assay, the IC50 for each clone was determined against the known antimalarials chloroquine and mefloquine. These control values established the compound's relative parasite susceptibility profile compared to known antimalarials. […]

P. falciparum TM91C235 = assay: In vitro screening protocol I, [3H]-hypoxanthine incorporation, TM91C235; conditions: Plasmodium falciparum, In vitro screening protocol I; P. falciparum TM91C235; read-out: IC50 TM91C235
Description: as §1, §2, §3, §4, §5

[2] = system: P. falciparum W2 (CDC/Indochina III, W-2); assay: In vitro screening protocol I, [3H]-hypoxanthine incorporation, W2; conditions: Plasmodium falciparum; In vitro screening protocol I; P. falciparum W2; read-out: IC50 W2
Description: as §1, §2, §3, §4, §5

Compound	IC50 [1] [µg/mL]	IC50 (P. falciparum TM91C235) [µg/mL]	IC50 [2] [µg/mL]
CC[C@H]1OC(=O)[C@H](C)[C@@H](O[C@H]2C[C@@](C)(OC)[C@@H](O)[C@H](C)O2)[C@H](C)[C@@H](O[C@@H]2O[C@H](C)C[C@H](N(C)C)[C@H]2O)[C@](C)(O)C[C@@H](C)CN(CCCN(C)Cc2cccc3ccccc23)[C@H](C)[C@@H](O)[C@]1(C)O [Example 17, 9a-{3-[Methyl-(naphtalen-1-yl-methyl)amino]propyl}-9-deoxo-9-dihydro-9a-aza-9a-homoerythromycin A]	0.1 to 0.2 (≈ 0.106 to 0.211 µM)	< 0.1	< 0.1
CC[C@H]1OC(=O)[C@H](C)[C@@H](O[C@H]2C[C@@](C)(OC)[C@@H](O)[C@H](C)O2)[C@H](C)[C@@H](O[C@@H]2O[C@H](C)C[C@H](N(C)C)[C@H]2O)[C@](C)(O)C[C@@H](C)CN(CCCNCc2ccccn2)[C@H](C)[C@@H](O)[C@]1(C)O [Example 18, 9a-{3-[(Pyridin-2-yl-methyl)amino]propyl}-9-deoxo-9-dihydro-9a-aza-9a-homoerythromycin A]	1 to 2.5 (≈ 1.13 to 2.83 µM)	1 to 2.5 (≈ 1.13 to 2.83 µM)	0.2 to 1 (≈ 0.226 to 1.13 µM)
CC[C@H]1OC(=O)[C@H](C)[C@@H](O[C@H]2C[C@@](C)(OC)[C@@H](O)[C@H](C)O2)[C@H](C)[C@@H](O[C@@H]2O[C@H](C)C[C@H](N(C)C)[C@H]2O)[C@](C)(O)C[C@@H](C)CN(CCCNCCCc2ccccc2)[C@H](C)[C@@H](O)[C@]1(C)O [Example 19, 9a-{3-[(3-Phenylpropyl)amino]propyl}-9-deoxo-9-dihydro-9a-aza-9a-homoerythromycin A]	0.1 to 0.2 (≈ 0.11 to 0.22 µM)	< 0.1	< 0.1
CC[C@H]1OC(=O)[C@H](C)[C@@H](O[C@H]2C[C@@](C)(OC)[C@@H](O)[C@H](C)O2)[C@H](C)[C@@H](O[C@@H]2O[C@H](C)C[C@H](N(C)C)[C@H]2O)[C@](C)(O)C[C@@H](C)CN(CCCNCCc2ccccc2)[C@H](C)[C@@H](O)[C@]1(C)O [Example 20, 9a-{3-[(2-Phenylethyl)amino]propyl}-9-deoxo-9-dihydro-9a-aza-9a-homoerythromycin A]	0.2 to 1 (≈ 0.223 to 1.12 µM)	< 0.1	< 0.1
CC[C@H]1OC(=O)[C@H](C)[C@@H](O[C@H]2C[C@@](C)(OC)[C@@H](O)[C@H](C)O2)[C@H](C)[C@@H](O[C@@H]2O[C@H](C)C[C@H](N(C)C)[C@H]2O)[C@](C)(O)C[C@@H](C)CN(CCCNc2ccnc3cc(Cl)ccc23)[C@H](C)[C@@H](O)[C@]1(C)O [Example 21A, 9a-{3-[(7-Chloro-quinolin-4-yl)amino]propyl}-9-deoxo-9-dihydro-9a-aza-9a-homoerythromycin A]	< 0.1	< 0.1	< 0.1
CC[C@H]1OC(=O)[C@H](C)[C@@H](O[C@H]2C[C@@](C)(OC)[C@@H](O)[C@H](C)O2)[C@H](C)[C@@H](O[C@@H]2O[C@H](C)C[C@H](NC)[C@H]2O)[C@](C)(O)C[C@@H](C)CN(CCCNc2ccnc3cc(Cl)ccc23)[C@H](C)[C@@H](O)[C@]1(C)O [Example 21B, 9a-{3-[(7-Chloro-quinolin-4-yl)amino]propyl}-3′N-demethyl-9-deoxo-9-dihydro-9a-aza-9a-homoerythromycin A]	0.1 to 0.2 (≈ 0.106 to 0.213 µM)	< 0.1	0.1 to 0.2 (≈ 0.106 to 0.213 µM)
CC[C@H]1OC(=O)[C@H](C)[C@@H](O[C@H]2C[C@@](C)(OC)[C@@H](O)[C@H](C)O2)[C@H](C)[C@@H](O[C@@H]2O[C@H](C)C[C@H](N(C)C)[C@H]2O)[C@](C)(O)C[C@@H](C)CN(CCCNc2ccnc3ccccc23)[C@H](C)[C@@H](O)[C@]1(C)O [Example 22, 9a-[3-(Quinolin-4-yl-amino)propyl]-9-deoxo-9-dihydro-9a-aza-9a-homoerythromycin A]	< 0.1	< 0.1	< 0.1

Further lines, results first:

IC50 [1] [µg/mL]	IC50 (P. falciparum TM91C235) [µg/mL]	IC50 [2] [µg/mL]	Compound
< 0.1	< 0.1	< 0.1	CC[C@H]1OC(=O)[C@H](C)[C@@H](O)[C@H](C)[C@@H](O[C@@H]2O[C@H](C)C[C@H](N(C)C)[C@H]2O)[C@](C)(O)C[C@@H](C)CN(CCCNc2ccnc3cc(Cl)ccc23)[C@H](C)[C@@H](O)[C@]1(C)O [Example 23]
0.1 to 0.2 (≈ 0.131 to 0.263 µM)	0.2 to 1 (≈ 0.263 to 1.31 µM)	0.1 to 0.2 (≈ 0.131 to 0.263 µM)	CC[C@H]1OC(=O)[C@H](C)[C@@H](O)[C@H](C)[C@@H](O[C@@H]2O[C@H](C)C[C@H](N(C)C)[C@H]2O)[C@](C)(O)C[C@@H](C)CN(CCCNc2ccnc3ccccc23)[C@H](C)[C@@H](O)[C@]1(C)O [Example 24, 9a-[3-(Quinolin-4-yl-amino)propyl]-3-O-decladinosyl-9-deoxo-9-dihydro-9a-aza-9a-homoerythromycin A]
1 to 2.5 (≈ 1.1 to 2.76 µM)	0.2 to 1 (≈ 0.221 to 1.1 µM)	1 to 2.5 (≈ 1.1 to 2.76 µM)	CC[C@H]1OC(=O)[C@H](C)[C@@H](O[C@H]2C[C@@](C)(OC)[C@@H](O)[C@H](C)O2)[C@H](C)[C@@H](O[C@@H]2O[C@H](C)C[C@H](NC)[C@H]2O)[C@](C)(O)C[C@@H](C)CN(CCCNc2ccnc3ccccc23)[C@H](C)[C@@H](O)[C@]1(C)O [Example 25, 9a-[3-(Quinolin-4-yl-amino)propyl]-3′-N-demethyl-9-deoxo-9-dihydro-9a-aza-9a-homoerythromycin A]
0.2 to 1	< 0.1	0.2 to 1	CC[C@H]1OC(=O)[C@H](C)[C@@H](O[C@H]2C[C@@](C)(OC)[C@@H](O)[C@H](C)O2)[C@H](C)[C@@H](O[C@@H]2O[C@H](C)C[C@H](N(C)C)[C@H]2O)[C@](C)(O)C[C@@H](C)CN(CCCNC(=O)CCc2ccccc2)[C@H](C)[C@@H](O)[C@]1(C)O [Example 27, 9a-{3-[(3-Phenylpropanoyl)amino]propyl}-9a-aza-9-deoxo-9-dihydro-9a-homoerythromycin A Formiate Salt]
0.2 to 1	< 0.1	0.2 to 1	CC[C@H]1OC(=O)[C@H](C)[C@@H](O[C@H]2C[C@@](C)(OC)[C@@H](O)[C@H](C)O2)[C@H](C)[C@@H](O[C@@H]2O[C@H](C)C[C@H](N(C)C)[C@H]2O)[C@](C)(O)C[C@@H](C)CN(CCCNC(=O)CCCc2ccccc2)[C@H](C)[C@@H](O)[C@]1(C)O [Example 28, 9a-{3-[(4-Phenylbutanoyl)amino]propyl}-9a-aza-9-deoxo-9-dihydro-9a-homoerythromycin A Formiate Salt]
0.2 to 1	< 0.1	0.2 to 1	CC[C@H]1OC(=O)[C@H](C)[C@@H](O[C@H]2C[C@@](C)(OC)[C@@H](O)[C@H](C)O2)[C@H](C)[C@@H](O[C@@H]2O[C@H](C)C[C@H](N(C)C)[C@H]2O)[C@](C)(O)C[C@@H](C)CN(CCCNC(=O)Cc2cccc3ccccc23)[C@H](C)[C@@H](O)[C@]1(C)O [Example 29, 9a-{3-[(Naphtalen-1-yl-acetyl)amino]propyl}-9a-aza-9-deoxo-9-dihydro-9a-homoerythromycin A Formiate Salt]
0.2 to 1	< 0.1	0.1 to 0.2	CC[C@H]1OC(=O)[C@H](C)[C@@H](O[C@H]2C[C@@](C)(OC)[C@@H](O)[C@H](C)O2)[C@H](C)[C@@H](O[C@@H]2O[C@H](C)C[C@H](N(C)C)[C@H]2O)[C@](C)(O)C[C@@H](C)CN(CCCNC(=O)CCCCc2ccccc2)[C@H](C)[C@@H](O)[C@]1(C)O [Example 31, 9a-{3-[(5-Phenylpentanoyl)amino]propyl}-9a-aza-9-deoxo-9-dihydro-9a-homoerythromycin A Formiate Salt]
0.2 to 1	< 0.1	0.1 to 0.2	CC[C@H]1OC(=O)[C@H](C)[C@@H](O[C@H]2C[C@@](C)(OC)[C@@H](O)[C@H](C)O2)[C@H](C)[C@@H](O[C@@H]2O[C@H](C)C[C@H](N(C)C)[C@H]2O)[C@](C)(O)C[C@@H](C)CN(CCCNC(=O)[C@H](C)c2ccc3cc(OC)ccc3c2)[C@H](C)[C@@H](O)[C@]1(C)O [Example 32, 9a-[3-({(2S)-2-[6-(methyloxy)-naphthalen-2-yl]propanoyl}amino)propyl]-9a-aza-9-deoxo-9-dihydro-9a-homoerythromycin A Formiate Salt]
